Measured values taken from patent publication US20150148235A1, “HERBICIDE-RESISTANT SUNFLOWER PLANTS WITH MULTIPLE HERBICIDE RESISTANT ALLELES OF AHASL1 AND METHODS OF USE” (NIDERA S.A., priority 2013, published 2015).
Marks after values point to notes of the source that are not given here.

Tested on: sunflower lines and hybrids carrying A122T and/or A205V AHASL1 alleles
Experiment: Greenhouse whole-plant response to imazapyr doses (height, Phytotoxicity Index, dry biomass), Example 2
Assay type: in vivo, Helianthus annuus
Details: 14 DAT; for Biomass weight reduction: heterozygous A122T/A205V
Experimental: Seeds were sown in Petri dishes and, after germination, plantlets were transplanted to pots of 10 cm of diameter in a potting media consisting of equal parts of vermiculite, soil and sand. Plants were grown in a greenhouse under natural light conditions supplemented with 400 W sodium halide lamps to provide a 16 hr daylength. Day/night temperatures were 25 and 20° C., respectively. At the V2-V4 stage (Schneiter & Miller (1981) Crop Sci. 21:901-903) 10 plants of each genotype were randomly assigned to each treatment consisting of eight imazapyr doses (0, 40, 80, 160, 240, 320, 400 and 480 g ai/ha, corresponding to untreated, 0.5×, 1×, 2×, 3×, 4×, 5× and 6×, respectively), and a zero-time biomass determination. Experiment was arranged as a randomized block design with a full factorial (sunflower line×treatment) arrangement of treatments and 10 replications.
On the day of herbicide application ten plants of each genotype were cut at the cotyledonal node and dried at 60° C. for 48 hrs for zero-time dried weight determination.
The remaining plants were maintained for 14 days after imazapyr treatment (DAT) and their height, Phytotoxicity Index (PI) and above ground dry biomass were determined Height was determined as the distance between the cotyledonal node and the apex of each plant. Above ground biomass data from each line were converted to biomass accumulation after application by subtracting the appropriate average zero-time biomass from each sample. Dry biomass data were converted to percentages of the untreated control plants within each line to allow direct comparisons between groups.

[1] = H4 (A122T/A205V hybrid), 4x=320 g ai/ha
[2] = L1 (A205V line), 0.5x=40 g ai/ha
[3] = L1 (A205V line), 3x=240 g ai/ha
[4] = L2 (A205V line), 5x=400 g ai/ha
[5] = L3 (cmsGM40, A122T line), 2x=160 g ai/ha
[6] = L3 (cmsGM40, A122T line), 4x=320 g ai/ha
[7] = L4 (A122T line), 0.5x=40 g ai/ha
[8] = L4 (A122T line), 2x=160 g ai/ha
[9] = L4 (A122T line), 3x=240 g ai/ha
[10] = L5 (WT susceptible), 1x=80 g ai/ha
[11] = L5 (WT susceptible), 2x=160 g ai/ha
[12] = L5 (WT susceptible), 3x=240 g ai/ha
[13] = L5 (WT susceptible), 4x=320 g ai/ha
[14] = L5 (WT susceptible), 5x=400 g ai/ha
[15] = L5 (WT susceptible), 6x=480 g ai/ha
[16] = mean of A122T genotypes (H2,L3,L4), 2x=160 g ai/ha
[17] = mean of A122T genotypes (H2,L3,L4), 3x=240 g ai/ha

CC(C)C1(C)N=C(c2ncccc2C(=O)O)NC1=O (stereo not drawn) [imazapyr]
biomass accumulation (dry) [1]: 85.0 % of untreated
plant height [1]: 95.0 % of untreated
Phytotoxicity Index (scale 0-9) (H4 (A122T/A205V hybrid), 5x=400 g ai/ha): 0.2
Phytotoxicity Index (scale 0-9) (H4 (A122T/A205V hybrid), 6x=480 g ai/ha): 0.0
Phytotoxicity Index (scale 0-9) [2]: 0
plant height [2]: 100.0 % of untreated
Phytotoxicity Index (scale 0-9) (L1 (A205V line), 1x=80 g ai/ha): 0
plant height (L1 (A205V line), 1x=80 g ai/ha): 100.0 % of untreated
Phytotoxicity Index (scale 0-9) (L1 (A205V line), 2x=160 g ai/ha): 1.6
Phytotoxicity Index (scale 0-9) [3]: 5.1
plant height [3]: 50.0 % of untreated
Phytotoxicity Index (scale 0-9) (L1 (A205V line), 4x=320 g ai/ha): 8.4
Phytotoxicity Index (scale 0-9) (L1 (A205V line), 5x=400 g ai/ha): 8.9
Phytotoxicity Index (scale 0-9) (L1 (A205V line), 6x=480 g ai/ha): 8.9
Phytotoxicity Index (scale 0-9) (L2 (A205V line), 0.5x=40 g ai/ha): 0
Phytotoxicity Index (scale 0-9) (L2 (A205V line), 1x=80 g ai/ha): 0
biomass accumulation (dry) (L2 (A205V line), 1x=80 g ai/ha): 85.0 % of untreated
Phytotoxicity Index (scale 0-9) (L2 (A205V line), 2x=160 g ai/ha): 3.1
Phytotoxicity Index (scale 0-9) (L2 (A205V line), 3x=240 g ai/ha): 3.9
Phytotoxicity Index (scale 0-9) (L2 (A205V line), 4x=320 g ai/ha): 5.9
Phytotoxicity Index (scale 0-9) [4]: 6.9
plant height [4]: 26.0 % of untreated
Phytotoxicity Index (scale 0-9) (L2 (A205V line), 6x=480 g ai/ha): 6.7
Phytotoxicity Index (scale 0-9) (L3 (cmsGM40, A122T line), 0.5x=40 g ai/ha): 0.4
Phytotoxicity Index (scale 0-9) (L3 (cmsGM40, A122T line), 1x=80 g ai/ha): 0.4
Phytotoxicity Index (scale 0-9) [5]: 0.4
plant height [5]: 92.0 % of untreated
Phytotoxicity Index (scale 0-9) (L3 (cmsGM40, A122T line), 3x=240 g ai/ha): 0.5
Phytotoxicity Index (scale 0-9) [6]: 1.0
biomass accumulation (dry) [6]: 75.0 % of untreated
Phytotoxicity Index (scale 0-9) (L3 (cmsGM40, A122T line), 5x=400 g ai/ha): 2.0
Phytotoxicity Index (scale 0-9) (L3 (cmsGM40, A122T line), 6x=480 g ai/ha): 2.5
Phytotoxicity Index (scale 0-9) [7]: 0.0
biomass accumulation (dry) [7]: 100.0 % of untreated
plant height [7]: 100.0 % of untreated
Phytotoxicity Index (scale 0-9) (L4 (A122T line), 1x=80 g ai/ha): 0.0
plant height (L4 (A122T line), 1x=80 g ai/ha): 100.0 % of untreated
Phytotoxicity Index (scale 0-9) [8]: 0.0
biomass accumulation (dry) [8]: 97.0 % of untreated
Phytotoxicity Index (scale 0-9) [9]: 0.0
plant height [9]: 97.0 % of untreated
Phytotoxicity Index (scale 0-9) (L4 (A122T line), 4x=320 g ai/ha): 0.0
Phytotoxicity Index (scale 0-9) (L4 (A122T line), 5x=400 g ai/ha): 0.0
Phytotoxicity Index (scale 0-9) (L4 (A122T line), 6x=480 g ai/ha): 0.5
Phytotoxicity Index (scale 0-9) (L5 (WT susceptible), 0.5x=40 g ai/ha): 9
Phytotoxicity Index (scale 0-9) [10]: 9
biomass accumulation (dry) [10]: 15.0 % of untreated
Phytotoxicity Index (scale 0-9) [11]: 9
biomass accumulation (dry) [11]: 15.0 % of untreated
Phytotoxicity Index (scale 0-9) [12]: 9
biomass accumulation (dry) [12]: 15.0 % of untreated
Phytotoxicity Index (scale 0-9) [13]: 9
biomass accumulation (dry) [13]: 15.0 % of untreated
Phytotoxicity Index (scale 0-9) [14]: 9
biomass accumulation (dry) [14]: 15.0 % of untreated
Phytotoxicity Index (scale 0-9) [15]: 9
biomass accumulation (dry) [15]: 15.0 % of untreated
Height reduction (heterozygotes A122T/A205V, 0.5x): 0.6%
Biomass weight reduction (0.5x): 0.3%
Biomass weight reduction (6x): 33%
Phytotoxicity Index (scale 0-9) (mean of A122T genotypes (H2,L3,L4), 0.5x=40 g ai/ha): 0.3
Phytotoxicity Index (scale 0-9) (mean of A122T genotypes (H2,L3,L4), 1x=80 g ai/ha): 0.3
Phytotoxicity Index (scale 0-9) [16]: 0.3
plant height [16]: 98.0 % of untreated
Phytotoxicity Index (scale 0-9) [17]: 0.3
biomass accumulation (dry) [17]: 90.0** % of untreated
Phytotoxicity Index (scale 0-9) (mean of A122T genotypes (H2,L3,L4), 4x=320 g ai/ha): 0.5
Phytotoxicity Index (scale 0-9) (mean of A122T genotypes (H2,L3,L4), 5x=400 g ai/ha): 0.8
Phytotoxicity Index (scale 0-9) (mean of A122T genotypes (H2,L3,L4), 6x=480 g ai/ha): 1.2
Phytotoxicity Index (scale 0-9) (mean of A122T/A205V genotypes (H3,H4), 0.5x=40 g ai/ha): 0.5
Phytotoxicity Index (scale 0-9) (mean of A122T/A205V genotypes (H3,H4), 1x=80 g ai/ha): 0.5
Phytotoxicity Index (scale 0-9) (mean of A122T/A205V genotypes (H3,H4), 2x=160 g ai/ha): 0.5
Phytotoxicity Index (scale 0-9) (mean of A122T/A205V genotypes (H3,H4), 3x=240 g ai/ha): 0.5
Phytotoxicity Index (scale 0-9) (mean of A122T/A205V genotypes (H3,H4), 4x=320 g ai/ha): 0.5
Phytotoxicity Index (scale 0-9) (mean of A122T/A205V genotypes (H3,H4), 5x=400 g ai/ha): 0.6
Phytotoxicity Index (scale 0-9) (mean of A122T/A205V genotypes (H3,H4), 6x=480 g ai/ha): 1
Phytotoxicity Index (scale 0-9) (mean of A205V genotypes (H1,L1,L2), 2x=160 g ai/ha): 2.2*
Phytotoxicity Index (scale 0-9) (mean of A205V genotypes (H1,L1,L2), 3x=240 g ai/ha): 5.1**
Phytotoxicity Index (scale 0-9) (mean of A205V genotypes (H1,L1,L2), 4x=320 g ai/ha): 7.4**
Phytotoxicity Index (scale 0-9) (mean of A205V genotypes (H1,L1,L2), 5x=400 g ai/ha): 8.2**
Phytotoxicity Index (scale 0-9) (mean of A205V genotypes (H1,L1,L2), 6x=480 g ai/ha): 8.2**
